Test results reported in PubChem BioAssay (NCI).
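The compound was tested at five concentrations on cells cultured in 96-well plates, with a 48-hour exposure period. GI50 marks 50% less growth. The concentration for full growth arrest is given as TGI.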

Legend:
Assay in all cases: growth of human tumour cells (NCI), 48 h
[1] = system: A549 NSCLC
[2] = system: HCT-15 colon
[3] = system: RXF 393 renal
[4] = system: PC-3 prostate
[5] = system: IGROV1 ovarian
[6] = system: SK-OV-3 ovarian
[7] = system: M14 melanoma
[8] = system: MOLT-4 leukemia
[9] = system: SNB-19 CNS
[10] = system: MDA-MB-435
[11] = system: NCI-H460 lung
[12] = system: T-47D breast
[13] = system: COLO 205 colon
[14] = system: A498 renal
[15] = system: MCF7 breast
[16] = system: SK-MEL-28 melanoma
[17] = system: SN12C renal
[18] = system: CAKI-1 renal
[19] = system: OVCAR-4 ovarian
[20] = system: U251 CNS
[21] = system: MDA-MB-231 breast
[22] = system: SK-MEL-5 melanoma
[23] = system: RPMI-8226 leukemia
[24] = system: SNB-75 CNS
[25] = system: UACC-257 melanoma
[26] = system: SK-MEL-2 melanoma
[27] = system: SR leukemia
[28] = system: SF-268 CNS
[29] = system: ACHN renal
[30] = system: NCI-H522 lung
[31] = system: OVCAR-8 ovarian
[32] = system: OVCAR-5 ovarian
[33] = system: SF-539 CNS
[34] = system: HT29 colon
[35] = system: 786-0 renal
[36] = system: CCRF-CEM leukemia
[37] = system: SW-620 colon
[38] = system: KM12 colon
[39] = system: MALME-3M melanoma
[40] = system: SF-295 CNS
[41] = system: HCC-2998 colon
[42] = system: OVCAR-3 ovarian
[43] = system: UO-31 renal
[44] = system: BT-549 breast
[45] = system: HS 578T breast
[46] = system: NCI/ADR-RES ovarian
[47] = system: NCI-H226 lung
[48] = system: UACC-62 melanoma
[49] = system: K-562 leukemia
[50] = system: EKVX NSCLC
[51] = system: HOP-62 NSCLC
[52] = system: TK-10 renal
[53] = system: DU-145 prostate

CC(C)Sc1nc(Nc2ccc(S(N)(=O)=O)cc2)c(C#N)c(-c2ccc(F)cc2)n1
TGI [1]: 10.4 µM
TGI [2]: > 100 µM
TGI [3]: 4.47 µM
GI50 [4]: 4.84 µM
TGI [4]: 19 µM
TGI [5]: 20.7 µM
GI50 [6]: 3.04 µM
TGI [6]: 8.94 µM
GI50 [7]: 5.59 µM
TGI [7]: 23.7 µM
GI50 [8]: 5.39 µM
GI50 [9]: 2.85 µM
TGI [9]: 8.01 µM
GI50 [10]: 4.35 µM
TGI [10]: 31.9 µM
TGI [11]: 5.57 µM
GI50 [12]: 3.46 µM
TGI [12]: 20.3 µM
GI50 [13]: 7.98 µM
TGI [13]: 30.2 µM
GI50 [14]: 2.82 µM
TGI [15]: 32.1 µM
GI50 [16]: 14.6 µM
TGI [16]: 37.7 µM
GI50 [17]: 2.38 µM
TGI [17]: 5.99 µM
GI50 [18]: 1.78 µM
TGI [18]: 3.61 µM
GI50 [19]: 2.1 µM
TGI [19]: 4.92 µM
GI50 [20]: 1.81 µM
TGI [20]: 3.54 µM
GI50 [21]: 2.86 µM
TGI [21]: 8.1 µM
GI50 [22]: 23.3 µM
TGI [22]: 77.4 µM
GI50 [23]: 9.22 µM
TGI [23]: 64.3 µM
GI50 [24]: 2.49 µM
TGI [24]: 9.2 µM
GI50 [25]: 14.4 µM
TGI [25]: 47.8 µM
GI50 [26]: 19 µM
TGI [26]: 55.7 µM
GI50 [27]: 3.73 µM
GI50 [28]: 5.49 µM
TGI [28]: 30.6 µM
GI50 [29]: 3.07 µM
TGI [29]: 9.12 µM
GI50 [30]: 8 µM
GI50 [31]: 3.98 µM
TGI [31]: 15.7 µM
GI50 [32]: 14.6 µM
TGI [32]: 62.4 µM
TGI [33]: 4.81 µM
GI50 [34]: 2.09 µM
TGI [34]: 4.77 µM
GI50 [35]: 3.31 µM
TGI [35]: 11.1 µM
GI50 [36]: 7.35 µM
GI50 [37]: 3.84 µM
TGI [37]: 22.8 µM
GI50 [38]: 6.92 µM
TGI [38]: > 100 µM
GI50 [39]: 3.2 µM
TGI [39]: 10.3 µM
GI50 [40]: 1.95 µM
TGI [40]: 3.73 µM
GI50 [41]: 10.7 µM
TGI [41]: 27.6 µM
GI50 [42]: 3.02 µM
TGI [42]: 8.51 µM
GI50 [43]: 2.39 µM
TGI [43]: 8.92 µM
GI50 [44]: 9.29 µM
TGI [44]: 35.4 µM
GI50 [45]: 2.76 µM
TGI [45]: 9.31 µM
GI50 [46]: 3.24 µM
GI50 [47]: 2.14 µM
TGI [47]: 5.54 µM
GI50 [48]: 10.3 µM
TGI [48]: 26.3 µM
GI50 [49]: 4.26 µM
GI50 [50]: 3.31 µM
TGI [50]: 14.1 µM
GI50 [51]: 3.12 µM
TGI [51]: 10.7 µM
GI50 [52]: 3.08 µM
GI50 [53]: 5.68 µM
TGI [53]: > 100 µM

CC(=O)OC[C@H]1OC(O)C=C[C@@H]1OC(C)=O (stereo partly specified)
GI50 [1]: 767 µM
TGI [1]: 2490 µM
GI50 [3]: 96.8 µM
TGI [3]: 195 µM
GI50 [4]: 89.5 µM
TGI [4]: 170 µM
GI50 [6]: 145 µM
TGI [6]: 407 µM
GI50 [9]: 91.1 µM
TGI [9]: 170 µM
GI50 [10]: 82.4 µM
TGI [10]: 155 µM
GI50 [11]: 155 µM
TGI [11]: 488 µM
GI50 [12]: 33.3 µM
TGI [12]: 161 µM
GI50 [15]: 23.5 µM
TGI [15]: 123 µM
GI50 [16]: 80.4 µM
TGI [16]: 153 µM
GI50 [17]: 88 µM
TGI [17]: 168 µM
GI50 [18]: 91.1 µM
TGI [18]: 170 µM
GI50 [20]: 95.1 µM
TGI [20]: 187 µM
GI50 [21]: 87.7 µM
TGI [21]: 183 µM
GI50 [22]: 89 µM
TGI [22]: 161 µM
GI50 [24]: 86.3 µM
TGI [24]: 159 µM
GI50 [25]: 87.1 µM
TGI [25]: 183 µM
GI50 [26]: 91.3 µM
TGI [26]: 177 µM
GI50 [28]: 109 µM
TGI [28]: 236 µM
GI50 [29]: 81.5 µM
TGI [29]: 151 µM
GI50 [32]: 95 µM
TGI [32]: 169 µM
GI50 [33]: 77.8 µM
TGI [33]: 155 µM
GI50 [35]: 94.1 µM
TGI [35]: 178 µM
GI50 [36]: 17.7 µM
TGI [36]: 89.8 µM
GI50 [38]: 93.9 µM
TGI [38]: 177 µM
GI50 [40]: 102 µM
TGI [40]: 198 µM
GI50 [41]: 91.7 µM
TGI [41]: 171 µM
GI50 [43]: 89.5 µM
TGI [43]: 168 µM
GI50 [44]: 89.2 µM
TGI [44]: 162 µM
GI50 [45]: 107 µM
TGI [45]: 263 µM
GI50 [47]: 119 µM
TGI [47]: 267 µM
GI50 [48]: 92 µM
TGI [48]: 176 µM
GI50 [51]: 110 µM
TGI [51]: 227 µM
GI50 [52]: 98.1 µM
TGI [52]: 179 µM
GI50 [53]: 71.6 µM
TGI [53]: 143 µM
